Data taken from US20240002470A1, “Method for separation and/or detection and/or in vitro quantification of infectious compounds in biological material” (priority 2020, published 2024).

Tests used:
[1] = system: ISAV virus (Infectious salmon anemia virus); assay: Capture of ISAV virus on magnetic microbeads coated with pepβ2GPI, RT-PCR quantification; assay type: binding; conditions: for % compared to β2GPI: ISAV copies captured relative to β2GPI beads; for ISAV copies: virus captured on coated beads from culture supernatant
Source text: The virus used is the ISAV virus (Infectious salmon anemia virus), responsible for anemia in salmon, originating from a culture supernatant.
The microbeads, intended to fix the virus, which are used are magnetic microbeads sold by the company MERCK under the name “Estapor® super-paramagnetic microspheres” which have a diameter between […].
(§1) The pepβ2GPI were grafted onto the microbeads according to the supplier's recommendations. In summary, the microbeads are suspended in phosphate buffer at a pH of 6.0. The beads are then activated, for 15 minutes, in the presence of 1-ethyl-3-(3-Dimethylaminopropyl) carbodiimide and N-hydroxysuccinimide. After washing with HCl, 2 mM, the beads are suspended in a phosphate buffer at a pH of 7.5, containing the pepβ2GPI. The concentration of pepβ2GPI in this coupling buffer is 20 mg/L; the microbeads are incubated in the buffer with gentle and constant shaking at a temperature of 25° C. for 3 hours. The microbeads are then centrifuged at 1,500 rpm and the supernatant is removed; the centrifugation pellet is suspended in the same buffer as that used for the coupling of pepβ2GPI, which forms the suspension of microbeads coated with pepβ2GPI which we want to test.
(§2) One hundred microliters of viral culture supernatant to be studied are placed in an Eppendorf tube with 900 microliters of Tris buffer at a pH of 7.5 and 10 microliters of microbeads. The tubes are shaken horizontally to mix the microbeads well, and each tube is incubated at 37° C. or at room temperature (RT=22° C.) for 30 minutes. In each tube, the microbeads are then separated from the liquid phase by means of a magnet, placed externally against the wall of the tube, and the viral RNA is extracted. The beads are brought into contact with a viral lysis buffer, included in an RNA extraction kit: QIAamp RNA viral kit, sold by QIAGEN and the viral RNA is isolated according to the seller's recommendations.
The RNA is then transcribed into complementary DNA, in the presence of reverse transcriptase, according to the following protocol:
Finally, the complementary DNA (cDNA) is amplified by chain reaction using a polymerase and quantified according to the following protocol: […]

[2] = system: IPN virus (Infectious pancreatic necrosis virus); assay: Capture of IPN virus on magnetic microbeads coated with pepβ2GPI, RT-PCR quantification; assay type: binding; conditions: for % compared to β2GPI: IPN copies captured relative to β2GPI beads; for IPN Copies: virus captured on coated beads from culture supernatant
Method: as §1, §2
The virus used is the IPN virus (Infectious pancreatic necrosis virus), responsible for necrosis of the pancreas in salmon, originating from a culture supernatant. The same protocol as described in example 1 was carried out.

[3] = system: HCV virus (hepatitis C virus); assay: Capture of HCV virus from patient plasma on magnetic microbeads coated with pepβ2GPI, RT-PCR quantification; assay type: binding; conditions: for % compared to β2GPI: HCV copies captured relative to β2GPI beads; for HCV/run copies: per run, virus captured on coated beads from plasma of patients
Method: as §1, §2
The virus used is the HCV virus (hepatitis C virus), present in the plasma of patients. The same protocol as described in example 1 was carried out.

E. coli B6054 [4] = assay: Capture of E. coli B6054 on magnetic microbeads, culture on TS agar and counting; assay type: binding, Escherichia coli; conditions: E. coli B6054 colonies from captured beads
E. coli ATCC 8739 [5] = assay: Capture of E. coli ATCC 8739 on magnetic microbeads, culture and counting; assay type: binding, Escherichia coli; conditions: E. coli ATCC 8739 colonies from captured beads
Method: (§3) One ml of the culture of bacteria to be studied is placed in a hemolysis tube. 100 μl of buffer are added, the trade name of which is TTGB, then 20 μl of microbeads. The tube is stirred horizontally, to mix the microbeads well, and incubated at 37° C. or at room temperature (TA=22° C.) for half an hour. At the end of the incubation, the microbeads are separated from the liquid phase by means of a magnet, placed externally against the wall of the tube. The microbeads are then washed twice with LB medium and then resuspended in 1 ml of BTS culture medium (Tripticase-Soy broth) having the following formulation: […]
(§4) This culture medium is brought to a boil and then autoclaved, to make it sterile, before use. 20 μl of the microbead suspension are taken and spread in a Petri dish containing TS agar (Trypticase-Soya agar) having the following formulation: […]
(§5) The Petri dishes are incubated at +37° C. for 24 hours. The bacteria that have grown on the agar are then counted.
The used bacteria were obtained from a collection strain of Escherichia coli (E. coli), ATCC 8739. The same experiment as that described in the previous example was carried out.

S. aureus, SA 378804 = assay: Capture of S. aureus SA 378804 on magnetic microbeads, culture and counting; assay type: binding, Staphylococcus aureus; conditions: S. aureus SA 378804 colonies from captured beads
Method: as §3, §4, §5
The used bacterium is a strain of Staphylococcus aureus (S. aureus), SA 378804, isolated from the wound of the foot of a diabetic person, Sotto et al., Diabetes Care (2008) 31 (12), p. 2318-24. The same experiment as that described in the previous example was carried out.

[6] = system: BVDV virus (Bovine viral Diarrhea Virus); assay: Capture of BVDV virus on magnetic microbeads coated with pepβ2GPI; assay type: binding
Method: as §1, §2
(§6) The viruses tested are the HSV virus (Herpes Simplex virus) and the BVDV virus (Bovine viral Diarrhea Virus).
(§7) The same protocol as that described in example 1 was carried out.

E. coli ATCC 11105 = assay: Capture on magnetic microbeads coated with pepβ2GPI: C3 E. coli ATCC 11105; assay type: binding
Method: (§8) To test the interaction of microbeads coated with β2GPI and the peptides derived from them, with bacteria present in the blood, 1 ml of blood culture is taken from each sample and placed in a 15 ml tube. 20 μl of microbeads are added and each tube is incubated at 37° C. with horizontal shaking. The tubes are then placed in a magnetic field which retains the microbeads on the wall and the supernatant is removed. The microbeads are then washed twice with sterile PBS, of the same composition as previously indicated; the microbeads are then resuspended in 150 μl of BTS culture medium. Two methods for detecting bacteria captured by microbeads were used: culture on TS agar and PCR For the detection of the bacterial capture by culture, 50 μl of the suspension of microbeads thus obtained are taken and they are spread out in a Petri dish containing TS agar. Petri dishes are incubated in an oven at 37° C. for 24 hours. The bacteria that have grown on the agar were then counted.
(§9) The tested bacteria are: C3 E. coli ATCC 11105, C5 S. aureus ATCC 6538, H61 E. coli B6054, C1: E. coli ATCC 8739, H46: C. albicans 1 and H: 60 SCN
(§10) The same protocol and primers as those described in example 9 were carried out.

S. aureus ATCC 6538 = assay: Capture on magnetic microbeads coated with pepβ2GPI: C5 S. aureus ATCC 6538; assay type: binding
Method: as §8, §9, §10

E. coli B6054 [7] = assay: Capture on magnetic microbeads coated with pepβ2GPI: H61 E. coli B6054; assay type: binding
Method: as §8, §9, §10

E. coli = conditions: cited from earlier work
S. pyogenes = conditions: cited from earlier work
S. aureus = conditions: cited from earlier work
[8] = system: HSV virus (Herpes Simplex virus); assay: Capture of HSV virus on magnetic microbeads coated with pepβ2GPI; assay type: binding
Method: as §1, §2, §6, §7

binding of β2GPI to LPS = target: T1, binding of β2GPI to LPS (Homo sapiens, UniProt P02749); conditions: cited from earlier work
T1 sequence (P02749 20-345): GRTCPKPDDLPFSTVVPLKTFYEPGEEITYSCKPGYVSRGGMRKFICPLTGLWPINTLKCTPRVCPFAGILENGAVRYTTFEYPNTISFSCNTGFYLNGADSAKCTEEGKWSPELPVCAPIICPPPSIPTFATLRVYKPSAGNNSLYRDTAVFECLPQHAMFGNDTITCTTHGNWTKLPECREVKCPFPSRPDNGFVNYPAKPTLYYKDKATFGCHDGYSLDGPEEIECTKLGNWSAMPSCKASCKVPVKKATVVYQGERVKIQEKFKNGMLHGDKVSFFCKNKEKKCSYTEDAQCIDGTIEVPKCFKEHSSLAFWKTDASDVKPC

E. coli ATCC 8739 [9] = assay: Capture on magnetic microbeads coated with pepβ2GPI: C1 E. coli ATCC 8739; assay type: binding
Method: as §8, §9, §10

C. albicans 1 = assay: Capture on magnetic microbeads coated with pepβ2GPI: H46 C. albicans 1; assay type: binding
Method: as §8, §9, §10

SCN = assay: Capture on magnetic microbeads coated with pepβ2GPI: H: 60 SCN; assay type: binding
Method: as §8, §9, §10

Row | Substance | % compared to β2GPI [1] | ISAV copies [1] | % compared to β2GPI [2] | IPN Copies [2] | % compared to β2GPI [3] | HCV/run copies [3] | % compared to β2GPI (E. coli B6054 [4]) | % compared to β2GPI (E. coli ATCC 8739 [5]) | % compared to β2GPI (S. aureus, SA 378804) | Capture of BVDV virus [6] | Capture of C3 E. coli ATCC 11105 (E. coli ATCC 11105) | Capture of C5 S. aureus ATCC 6538 (S. aureus ATCC 6538) | Capture of H61 E. coli B6054 (E. coli B6054 [7]) | Capture of HSV virus [8] | further results
1 | SSLAFWK [Peptide P1] | (130%) | 72 300 copies | (117%) | 14 copies | (163%) | 184 copies | 92% | 68% | 115% | 7% | 30% | 56% | 71% |  | 
2 | GDKVSFFCKNKEKKCS [GDK15] |  |  |  |  |  |  |  |  |  |  |  |  |  |  | bactericidal effect (E. coli): have a bactericidal effect; bactericidal effect (S. pyogenes): have a bactericidal effect; bactericidal effect (S. aureus): This effect is less
3 | CKNKEKKC [Peptide P2] | (112%) | 62 700 copies | (50%) | 6 copies | (72%) | 81 copies | 31% | 15% | 104% | 181% | 30% | 80% | 104% | 97% | 
4 | CKNKEKKC [Peptide P3] | (117%) | 65 550 copies |  |  |  |  |  |  |  | 15% | 42% | 65% | 88% |  | 
5 | LAFWKTDA |  |  |  |  |  |  |  |  |  |  |  |  |  |  | inhibiting the binding of β2GPI to LPS (binding of β2GPI to LPS): capable of inhibiting the binding of β2GPI to LPS
6 | CKNKEKKCS [CNK8] |  |  |  |  |  |  |  |  |  |  |  |  |  |  | bactericidal effect (E. coli): have a bactericidal effect; bactericidal effect (S. pyogenes): have a bactericidal effect; bactericidal effect (S. aureus): This effect is less
7 | CKNKEKKCGGSSLAFWK [Peptide P4] | (110%) | 61 150 copies | (100%) | 12 copies | (73%) | 83 copies | 44% | 18% | 79% | 73% | 26% | 73% | 85% | 357% | 
8 | H-(SSLAFWK)2-K—NH2 [Peptide P10] | (105%) | 58 400 copies | (67%) | 8 copies | (87%) | 98 copies | 34% | 12% |  | 208% | 45% | 66% | 79% | 119% | Capture of C1: E. coli ATCC 8739 (E. coli ATCC 8739 [9]): 6.17%; Capture of H46: C. albicans 1 (C. albicans 1): 97.9%; Capture of H: 60 SCN (SCN): 49.0%
